# According to patent publication US12544348B2, “Methods for treating APOE4/4-associated disorders” (The Regents of the University of California, priority 2018, dated 2026):
# System: hippocampal cells of apoE4-KI mice
# Experiment: Single-nucleus RNA-seq of hippocampus of apoE4-KI mice
# Assay type: in vivo
# Method: Single-Nucleus RNA-Seq Library Preparation and Sequencing. Twelve-month-old apoE3-KI and apoE4-KI mice received daily i.p. injections of vehicle or bumetanide (0.2 mg/kg body weight) for 60 days. […] Mouse hippocampi were acutely dissected on ice. Dissected hippocampi were placed in 2 mL Hibernate A®/B27®/GlutaMAX™ (HEB) medium in a 5 mL tube. The HEB medium was removed to a 15 mL conical and kept on ice. 2 mL of chilled lysis buffer (10 mM Tris-HCl, 10 mM NaCl, 3 mM MgCl2, and 0.1% Nonidet™ P40 Substitute in Nuclease-Free Water) were added to the tissue, and the hippocampi were homogenized by suctioning 10× through a 21G needle. After homogenization, the tissue was lysed on ice for 15 min, swirling 2-3×during this incubation period. The reserved chilled HEB media was then returned to the lysed tissue solution, and the tissue was further triturated with 5-7 passes through a 1 mL pipette. A 30 μm cell strainer (MACS SmartStrainer; Miltenyi Biotech 130-110-915) was washed with 1 mL of PBS, and the lysed tissue solution was filtered through the strainer to remove debris and clumps. Filtered nuclei were centrifuged at 500 ref for 5 min at 4° C. […]
# Single-Nucleus RNA-Seq Alignment, Clustering and Cell Type Identification. […] Reads from each sample were aligned to this genome and aggregated using the 10×Cellranger pipeline with no modifications. […] Genes with detected expression in at least 3 nuclei, and nuclei with at least 200 detected genes and a maximum of 2400 were retained for analysis for a total of Nuclei with a mitochondrial percentage of less than 0.0025 were retained for future analysis for a total of 27,415 cells. Highly variable genes were calculated via the FindVariableGenes function with the parameters: x.low.cutoff=0.0123, x.high.cutoff =3, y.cutoff=0.5 for a total of 2578 highly variable genes. […] PCAElbow Plot was used to plot the cumulative standard deviations of each principal component the significance of the association of each gene with each principal component was assessed via the JackStraw and JackStrawPlot function. […]
smiles,measurement,setting,value
"CCCCNc1cc(C(=O)O)cc(S(N)(=O)=O)c1Oc1ccccc1 [bumetanide, 3-(butylamino)-4-phenoxy-5-sulfamoylbenzoic acid]",number of those pathways also enriched in apoE4/4-mediated AD in humans,0.2 mg/kg daily i.p. 8 weeks,19
same,number of cell types (of 18 clusters) in which apoE4/4 AD signature genes were flipped,"0.2 mg/kg daily i.p. 8 weeks, P<0.05 Monte Carlo",12
same,number of ontological pathways enriched in at least one neuronal cell type with significant flip,"p<0.005, 0.2 mg/kg daily i.p. 8 weeks",104
